Patent US7582773B2, “Substituted phenyl indoles” (Wyeth, priority 2003, dated 2009)

Legend:
human PAI-1 = human PAI-1 (Homo sapiens, UniProt P05121); experiment: Assay for determining the IC50 of inhibition of PAI-1 (active PAI-1 bound to tPA-coated plate); type: biochemical; settings: test compound 1-50 μM, pH 7.5
Procedure: Assay for determining the IC50 of inhibition of PAI-1. This assay is based upon the non-SDS dissociable interaction between tPA and active PAI-1. Assay plates are initially coated with human tPA (10 μg/ml). Test compounds are dissolved in DMSO at 10 mM, then diluted with physiologic buffer (pH 7.5) to a final concentration of 1-50 μM. The test compounds are incubated with human PAI-1 (50 ng/ml) for 15 minutes at room temperature. The tPA-coated plate is washed with a solution of 0.05% Tween 20 and 0.1% BSA, then the plate is blocked with a solution of 3% BSA. An aliquot of the test compound/PAI-1 solution is then added to the tPA-coated plate, incubated at room temperature for 1 hour, and washed. Active PAI-1 bound to the plate is assessed by adding an aliquot of a 1:1000 dilution of the 33B8 monoclonal antibody against human PAI-1, and incubating the plate at room temperature for 1 hour (Molecular Innovations, Royal Oak, Mich.). The plate is again washed, and a solution of goat anti-mouse IgG-alkaline phosphatase conjugate is added at a 1:50,000 dilution in goat serum. The plate is incubated 30 minutes at room temperature, washed, and a solution of alkaline phosphatase substrate is added. The plate is incubated 45 minutes at room temperature, and color development is determined at OD405 nm. The quantitation of active PAI-1 bound to tPA at varying concentrations of the test compound is used to determine the IC50. Results are analyzed using a logarithmic best-fit equation. The assay sensitivity is 5 ng/ml of human PAI-1 as determined from a standard curve ranging from 0-100 ng/ml.

[1] = molecular target: T1, recombinant human plasminogen activator inhibitor-1 (PAI-1) (Homo sapiens, UniProt P05121); experiment: Screening for PAI-1 inhibition (chromogenic tPA activity assay); type: biochemical
T1 construct: purchased Molecular Innovations, Royal Oak, Mich
Procedure: Screening for PAI-1 inhibition. Test compounds are dissolved in DMSO at a final concentration of 10 mM, then diluted 100× in physiologic buffer. The inhibitory assay is initiated by the addition of the test compound (1-100 μM final concentration, maximum DMSO concentration of 0.2%) in a pH 6.6 buffer containing 140 nM recombinant human plasminogen activator inhibitor-1 (PAI-1; Molecular Innovations, Royal Oak, Mich.). Following a 1 hour incubation at room temperature, 70 nM of recombinant human tissue plasminogen activator (tPA) is added, and the combination of the test compound, PAI-1 and tPA is incubated for an additional 30 minutes. Following the second incubation, Spectrozyme-tPA (American Diagnostica, Greenwich, Conn.), a chromogenic substrate for tPA, is added and absorbance read at 405 nm at 0 and 60 minutes. Relative PAI-1 inhibition is equal to the residual tPA activity in the presence of the test compounds and PAI-1. Control treatments include the complete inhibition of tPA by PAI-1 at the molar ratio employed (2:1), and the absence of any effect of the test compound on tPA alone.

human PAI-1, sequence (P05121 24-402): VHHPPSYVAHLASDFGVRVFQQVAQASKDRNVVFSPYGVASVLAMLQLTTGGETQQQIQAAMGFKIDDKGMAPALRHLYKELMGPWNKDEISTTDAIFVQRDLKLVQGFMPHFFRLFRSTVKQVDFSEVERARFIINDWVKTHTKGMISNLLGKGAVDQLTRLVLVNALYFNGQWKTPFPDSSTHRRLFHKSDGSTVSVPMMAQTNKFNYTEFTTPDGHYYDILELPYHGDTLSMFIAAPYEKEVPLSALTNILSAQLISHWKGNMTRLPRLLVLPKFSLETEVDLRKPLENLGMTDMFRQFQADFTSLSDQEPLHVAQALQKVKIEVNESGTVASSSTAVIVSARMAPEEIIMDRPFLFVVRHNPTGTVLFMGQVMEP
T1 sequence (P05121 24-402): as above

Row | SMILES | melting point [°C] | IC50 (human PAI-1) [µM] | inhibition at 25 µM [1] [%]
1 | Cc1c(Cc2ccccc2)c2cc(-c3ccc(OCc4nnn[nH]4)cc3)ccc2n1Cc1ccccc1 [1,3-Dibenzyl-2-methyl-5-[4-(1H-tetrazol-5-ylmethoxy)-phenyl]-1H-indole] | 190 to 192 | 47.7 | –
2 | c1ccc(Cc2c(-c3ccccc3)n(Cc3ccccc3)c3ccc(-c4ccc(OCc5nnn[nH]5)cc4)cc23)cc1 [1,3-Dibenzyl-2-phenyl-5-[4-(1H-tetrazol-5-ylmethoxy)-phenyl]-1H-indole] | – | – | 51
3 | Cc1c(-c2ccccc2)n(C)c2cccc(-c3ccc(OCc4nnn[nH]4)cc3)c12 [1,3-Dimethyl-2-phenyl-4-[4-(1H-tetrazol-5-ylmethoxy)-phenyl]-1H-indole] | – | 32.8 | –
4 | Cc1c(-c2ccccc2)n(C)c2ccc(-c3ccc(OCc4nnn[nH]4)cc3)cc12 [1,3-Dimethyl-2-phenyl-5-[4-(1H-tetrazol-5-ylmethoxy)-phenyl]-1H-indole] | – | 16.5 | –
5 | Cc1c(C)n(Cc2ccccc2)c2ccc(-c3ccc(OCc4nnn[nH]4)cc3)cc12 [1-Benzyl-2,3-dimethyl-5-[4-(1H-tetrazol-5-ylmethoxy)-phenyl]-1H-indole] | – | 28.2 | –
6 | Cc1c(-c2ccccc2)n(Cc2ccccc2)c2cccc(-c3ccc(OCc4nnn[nH]4)cc3)c12 [1-Benzyl-3-methyl-2-phenyl-4-[4-(1H-tetrazol-5-ylmethoxy)-phenyl]-1H-indole] | 174 to 177 | 25.7 | –
7 | Cc1c(-c2ccccc2)n(Cc2ccccc2)c2ccc(-c3ccc(OCc4nnn[nH]4)cc3)cc12 [1-Benzyl-3-methyl-2-phenyl-5-[4-(1H-tetrazol-5-ylmethoxy)-phenyl]-1H-indole] | – | 10.1 | –
8 | Cc1c(-c2ccccc2)n(Cc2ccccc2)c2cc(-c3ccc(OCc4nnn[nH]4)cc3)ccc12 [1-Benzyl-3-methyl-2-phenyl-6-[4-(1H-tetrazol-5-ylmethoxy)-phenyl]-1H-indole] | – | 36.9 | –
9 | CCCCCc1c(-c2ccccc2)n(Cc2ccccc2)c2ccc(-c3ccc(OCc4nnn[nH]4)cc3)cc12 [1-Benzyl-3-pentyl-2-phenyl-5-[4-(1H-tetrazol-5-ylmethoxy)-phenyl]-1H-indole] | 165 to 168 | 16.3 | –
10 | CCCCCc1c(-c2ccccc2)n(C)c2ccc(-c3ccc(OCc4nnn[nH]4)cc3)cc12 [1-Methyl-3-pentyl-2-phenyl-5-[4-(1H-tetrazol-5-ylmethoxy)-phenyl]-1H-indole] | – | 36.4 | –
11 | Cc1c(Cc2ccccc2)c2cc(-c3ccc(OCc4nnn[nH]4)cc3)ccc2n1C [3-Benzyl-1,2-dimethyl-5-[4-(1H-tetrazol-5-ylmethoxy)-phenyl]-1H-indole] | – | 43.9 | –
12 | Cn1c(-c2ccccc2)c(Cc2ccccc2)c2cc(-c3ccc(OCc4nnn[nH]4)cc3)ccc21 [3-Benzyl-1-methyl-2-phenyl-5-[4-(1H-tetrazol-5-ylmethoxy)-phenyl]-1H-indole] | – | – | 56
13 | c1ccc(Cn2c3c(c4cc(-c5ccc(OCc6nnn[nH]6)cc5)ccc42)CCCC3)cc1 [9-Benzyl-6-[4-(1H-tetrazol-5-ylmethoxy)-phenyl]-2,3,4,9-tetrahydro-1H-carbazole] | – | 27.5 | –
14 | Cn1c2c(c3cc(-c4ccc(OCc5nnn[nH]5)cc4)ccc31)CCCC2 [9-Methyl-6-[4-(1H-tetrazol-5-ylmethoxy)-phenyl]-2,3,4,9-tetrahydro-1H-carbazole] | – | 6.1 | –
15 | Cc1c(Cc2ccccc2)c2cc(-c3ccc(OCC(=O)O)cc3)ccc2n1Cc1ccccc1 [[4-(1,3-Dibenzyl-2-methyl-1H-indol-5-yl)-phenoxy]-acetic acid] | 180 to 183 | 25.3 | –
16 | O=C(O)COc1ccc(-c2ccc3c(c2)c(Cc2ccccc2)c(-c2ccccc2)n3Cc2ccccc2)cc1 [[4-(1,3-Dibenzyl-2-phenyl-1H-indol-5-yl)-phenoxy]-acetic acid] | 153 to 155 | 12.1 | –
17 | Cc1c(-c2ccccc2)n(C)c2cccc(-c3ccc(OCC(=O)O)cc3)c12 [[4-(1,3-Dimethyl-2-phenyl-1H-indol-4-yl)-phenoxy]-acetic acid] | 177 to 180 | 33.9 | –
18 | Cc1c(C)n(Cc2ccccc2)c2ccc(-c3ccc(OCC(=O)O)cc3)cc12 [[4-(1-Benzyl-2,3-dimethyl-1H-indol-5-yl)-phenoxy]-acetic acid] | 203 to 206 | 51.5 | –
19 | Cc1c(-c2ccccc2)n(Cc2ccccc2)c2cccc(-c3ccc(OCC(=O)O)cc3)c12 [[4-(1-Benzyl-3-methyl-2-phenyl-1H-indol-4-yl)-phenoxy]-acetic acid] | 82 to 86 | 23.1 | –
20 | Cc1c(-c2ccccc2)n(Cc2ccccc2)c2ccc(-c3ccc(OCC(=O)O)cc3)cc12 [[4-(1-Benzyl-3-methyl-2-phenyl-1H-indol-5-yl)-phenoxy]-acetic acid] | 173.5 to 175 | 18.1 | –
21 | Cc1c(-c2ccccc2)n(Cc2ccccc2)c2cc(-c3ccc(OCC(=O)O)cc3)ccc12 [[4-(1-Benzyl-3-methyl-2-phenyl-1H-indol-6-yl)-phenoxy]-acetic acid] | 202 to 205 | – | 27
22 | CCCCCc1c(-c2ccccc2)n(Cc2ccccc2)c2ccc(-c3ccc(OCC(=O)O)cc3)cc12 [[4-(1-Benzyl-3-pentyl-2-phenyl-1H-indol-5-yl)-phenoxy]-acetic acid] | 141 to 143 | 15.4 | –
23 | CCCCCc1c(-c2ccccc2)n(C)c2ccc(-c3ccc(OCC(=O)O)cc3)cc12 [[4-(1-Methyl-3-pentyl-2-phenyl-1H-indol-5-yl)-phenoxy]-acetic acid] | 146 to 148 | – | 68
24 | Cc1c(Cc2ccccc2)c2cc(-c3ccc(OCC(=O)O)cc3)ccc2n1C [[4-(3-Benzyl-1,2-dimethyl-1H-indol-5-yl)-phenoxy]-acetic acid] | 204 to 207 | 38 | –
25 | Cn1c(-c2ccccc2)c(Cc2ccccc2)c2cc(-c3ccc(OCC(=O)O)cc3)ccc21 [[4-(3-Benzyl-1-methyl-2-phenyl-1H-indol-5-yl)-phenoxy]-acetic acid] | 179 to 181 | – | 48
26 | O=C(O)COc1ccc(-c2ccc3c(c2)c2c(n3Cc3ccccc3)CCCC2)cc1 [[4-(9-Benzyl-6,7,8,9-tetrahydro-5H-carbazol-3-yl)-phenoxy]-acetic acid] | 176 to 180 | 35.6 | –
